What was measured:
[1] = Metabolic stability in human liver microsomes; assay type: in vitro ADME; conditions: both sexes; human liver microsomes 0.5 mg/mL; compound 1 μM
Description: The experiments were performed by Pharmacelsus, Saarbrücken, Germany (https://www.pharmacelsus.com/services/in-vitro-adme/) using human and mouse liver microsomes (0.5 mg/mL, mixed gender, pooled). Compounds were tested at a concentration of 1 μM. Data points represent means of two separate experiments performed in duplicates.

[2] = Chemical stability of stock solutions by LC/ESI-MS analysis; assay type: physicochemical
Description: To ensure that degradation was caused by microsomal enzymes and not due to chemical instability, stock solutions were analyzed by LC/ESI-MS analysis, and were in all cases found to be stable. […] Nevertheless, they represent useful tool compounds for in vitro studies.

NTPDase2 = target: T1, NTPDase2 (Homo sapiens, UniProt Q9Y5L3); test: Malachite green assay for NTPDase2; assay type: biochemical; design: expressed in transfected cells; host or cells: COS-7 cell membrane preparations; conditions: for Ki: ATP 50 µM, recombinant COS-7 cell membrane preparation, read-out: Ki ± SEM
T1 sequence (Q9Y5L3 1-495): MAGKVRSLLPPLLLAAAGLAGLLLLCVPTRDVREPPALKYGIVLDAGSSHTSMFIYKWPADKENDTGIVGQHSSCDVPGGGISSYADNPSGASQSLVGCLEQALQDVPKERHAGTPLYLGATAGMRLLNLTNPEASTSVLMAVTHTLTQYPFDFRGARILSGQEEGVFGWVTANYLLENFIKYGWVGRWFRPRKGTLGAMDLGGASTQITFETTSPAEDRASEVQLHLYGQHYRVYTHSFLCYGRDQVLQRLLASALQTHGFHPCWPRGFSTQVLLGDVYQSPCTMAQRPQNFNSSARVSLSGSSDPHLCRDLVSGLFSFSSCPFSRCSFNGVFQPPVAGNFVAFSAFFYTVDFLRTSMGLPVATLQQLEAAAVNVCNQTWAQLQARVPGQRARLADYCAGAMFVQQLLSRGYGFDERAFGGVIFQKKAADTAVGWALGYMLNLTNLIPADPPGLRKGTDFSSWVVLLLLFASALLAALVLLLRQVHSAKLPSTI
Description: (§1) The enzymatic activity assay was determined essentially as previously described ([Cogan et al., 1999]) with a few adaptations. The reaction buffer contained 10 mM HEPES, 2 mM CaCl2, 1 mM MgCl2, pH 7.4 in a final volume of 50 μl in transparent 96-well half area plates. For CD39 (NTPDase1), we made use of human umbilical cord membranes preparations which express high levels of the enzyme. For the other human NTPDase isoenzymes, we had to resort to recombinant expression. Human umbilical cord membrane preparations (250 ng) natively expressing high amounts of CD39, or the respective recombinant COS-7 cell membrane preparations expressing the appropriate NTPDase isoenzyme (ca. 100 ng of protein depending on enzyme activity) ([Sévigny et al., 1997]; [Lecka et al., 2013]) with or without inhibitor were preincubated at 37°C and gentle shaking (Eppendorf Thermomixer comfort at 500 rpm) for 5 min. The amount of enzyme preparation was adjusted to ensure 10–20% of substrate conversion. […] ([Kukulski et al., 2005]). After 15 min of incubation at 37°C with gentle shaking, the reaction was stopped by adding the detection reagents (20 µl malachite green solution, 0.6 mM, and 30 µl ammonium molybdate solution, 20 mM, in sulfuric acid, 1.5 M). The released (inorganic) phosphate was quantified after 20 min of gentle shaking at 25°C by measuring the absorption of the malachite green-phosphomolybdate complex at 600 nm using a BMG PheraStar FS plate reader (BMG Labtech GmbH, Ortenberg, Germany). The corrected absorption was calculated by subtracting the absorption of the negative control samples, which were incubated with denatured enzyme (90°C, 15 min), and the inhibition was calculated as follows:
(§2) % Inhibition=(B−T)/B*100%
(§3) where B is the average corrected absorption of the positive control without inhibitor and T the corrected absorption in the presence of test compound.
(§4) Full concentration-inhibition curves were determined with inhibitor concentrations ranging from 0.1 to 300 µM in the presence of 2% DMSO. Three independent experiments were performed (n = 3) and curves were calculated by the GraphPad Prism 8 software. The Ki value was calculated using the Cheng-Prusoff equation for competitive inhibitors: […]

NTPDase8 = target: T2, NTPDase8 (Homo sapiens, UniProt Q5MY95); test: Malachite green assay for NTPDase8; assay type: biochemical; design: expressed in transfected cells; host or cells: COS-7 cell membrane preparations; conditions: for Ki: ATP 50 µM, recombinant COS-7 cell membrane preparation, read-out: Ki ± SEM; for % inhibition: test concentration not given
T2 sequence (Q5MY95 1-495): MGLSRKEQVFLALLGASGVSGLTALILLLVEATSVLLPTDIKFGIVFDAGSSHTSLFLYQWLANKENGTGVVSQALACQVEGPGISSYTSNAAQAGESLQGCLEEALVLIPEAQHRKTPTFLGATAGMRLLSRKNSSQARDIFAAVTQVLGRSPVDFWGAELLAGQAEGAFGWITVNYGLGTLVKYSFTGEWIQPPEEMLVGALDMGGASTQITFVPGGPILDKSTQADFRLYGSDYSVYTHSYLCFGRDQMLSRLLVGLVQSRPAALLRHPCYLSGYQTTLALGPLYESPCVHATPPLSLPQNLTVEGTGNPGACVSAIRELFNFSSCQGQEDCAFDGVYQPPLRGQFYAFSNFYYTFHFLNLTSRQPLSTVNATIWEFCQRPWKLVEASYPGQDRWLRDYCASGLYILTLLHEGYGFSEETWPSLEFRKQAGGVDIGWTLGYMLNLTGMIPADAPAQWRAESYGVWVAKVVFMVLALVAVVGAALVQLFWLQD
Description: as §1, §2, §3, §4

Row | Compound | half-life at 1 μM [1] [min] | stability of stock solutions [2] | Ki (NTPDase2; NTPDase2) [µM] | % inhibition (NTPDase2; NTPDase2, test concentration not given) [%] | Ki (NTPDase8) [µM] | % inhibition (NTPDase8) [%] | NTPDase2 inhibition (in words) (NTPDase2)
1 | CCN(CC)c1ncnc2c1ncn2[C@@H]1O[C@H](COP(=O)(O)OP(=O)(O)C(Br)(Br)P(=O)(O)O)[C@@H](O)[C@H]1O [ARL67156, (Dibromo((((((2R,3S,4R,5R)-5-(6-(diethylamino)-9H-purin-9-yl)-3,4-dihydroxytetrahydrofuran-2-yl)methoxy)-(hydroxy)-phosphoryl)oxy)(hydroxy)phosphoryl)methyl)-phosphonic Acid, reference compound] | < 1 | stable | > 50 | 18 | > 50 | 2 | 
2 | CCCCSc1nc2c(N)ncnc2n1[C@@H]1O[C@H](COP(=O)(O)OP(=O)(O)C(Br)(Br)P(=O)(O)O)[C@@H](O)[C@H]1O [Compound 31, (((((((2R,3S,4R,5R)-5-(6-Amino-8-(butylthio)-9H-purin-9-yl)-3,4-dihydroxytetrahydrofuran-2-yl)methoxy)(hydroxy)-phosphoryl)oxy)(hydroxy)phosphoryl)dibromomethyl)-phosphonic Acid] | < 1 | stable | 22.2 ± 0.5 |  | > 50 | 2 | weakly inhibit
3 | CCCCNc1nc2c(NC)ncnc2n1[C@@H]1O[C@H](COP(=O)(O)OP(=O)(O)C(Br)(Br)P(=O)(O)O)[C@@H](O)[C@H]1O [Compound 33, (Dibromo((((((2R,3S,4R,5R)-5-(8-(butylamino)-6-(methylamino)-9H-purin-9-yl)-3,4-dihydroxy-tetrahydrofuran-2-yl)methoxy)(hydroxy)phosphoryl)oxy)-(hydroxy)phosphoryl)methyl)-phosphonic Acid] | < 1 | stable | 78 ± 0.6 |  | > 50 | -11 | 

Source: paper PMC7508162 (Frontiers in Pharmacology, 2020)
